How the values were obtained:
[1] = system: normal NK cells expanded with K562-aAPC; assay: percent inhibition of viability; higher = more inhibition; settings: 72 h, IL-2 2.5 ng/mL
Procedure: (§1)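 Drug sensitivity and resistance testing on K562-aAPC-expanded normal NK cells: 5 concentrations (10-fold steps over a 10,000-fold range), 72 h at 37 °C, viability by CellTiter-Glo normalised to DMSO and benzethonium chloride controls; DSS from the fitted curve.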

DERL-7 (IL-2 2.5 ng/mL) [2] = assay: as above; settings: 72 h
IMC-1 (IL-2 20 ng/mL) [3] = assay: as above; settings: 72 h
KAI3 (IL-2 2.5 ng/mL) [4] = assay: as above; settings: 72 h
KHYG-1 (IL-2 2.5 ng/mL) [5] = assay: as above; settings: 72 h
NK-92 (IL-2 2.5 ng/mL) [6] = assay: as above; settings: 72 h
NK-YS (IL-2 2.5 ng/mL) [7] = assay: as above; settings: 72 h
NKL (IL-2 2.5 ng/mL) [8] = assay: as above; settings: 72 h
SNK-6 (IL-2 2.5 ng/mL) [9] = assay: as above; settings: 72 h
YT (IL-2 2.5 ng/mL) [10] = assay: as above; settings: 72 h
[11] = system: normal primary NK cells, pool 1 (3 donors) (IL-2 2.5 ng/mL); assay: as above; settings: 72 h
[12] = system: normal primary NK cells, pool 1 (3 donors), resting (IL-2 0 ng/mL); assay: as above; settings: 72 h
[13] = system: normal primary NK cells, pool 2 (3 donors) (IL-2 2.5 ng/mL); assay: as above; settings: 72 h
[14] = system: normal primary NK cells, pool 3 (3 donors) (IL-2 2.5 ng/mL); assay: as above; settings: 72 h
[15] = system: normal NK cells expanded with K562-aAPC; assay: drug sensitivity score (DSS) (DSS units); higher = more sensitive; extreme values may be limits of the assay; settings: 72 h; IL-2 2.5 ng/mL
Procedure: as §1

DERL-7 (IL-2 2.5 ng/mL) [16] = assay: as above; settings: 72 h
IMC-1 (IL-2 20 ng/mL) [17] = assay: as above; settings: 72 h
KAI3 (IL-2 2.5 ng/mL) [18] = assay: as above; settings: 72 h
KHYG-1 (IL-2 2.5 ng/mL) [19] = assay: as above; settings: 72 h
NK-92 (IL-2 2.5 ng/mL) [20] = assay: as above; settings: 72 h
NK-YS (IL-2 2.5 ng/mL) [21] = assay: as above; settings: 72 h
NKL (IL-2 2.5 ng/mL) [22] = assay: as above; settings: 72 h
SNK-6 (IL-2 2.5 ng/mL) [23] = assay: as above; settings: 72 h
YT (IL-2 2.5 ng/mL) [24] = assay: as above; settings: 72 h
[25] = system: normal primary NK cells, pool 1 (3 donors) (IL-2 2.5 ng/mL); assay: as above; settings: 72 h
[26] = system: normal primary NK cells, pool 1 (3 donors), resting (IL-2 0 ng/mL); assay: as above; settings: 72 h
[27] = system: normal primary NK cells, pool 2 (3 donors) (IL-2 2.5 ng/mL); assay: as above; settings: 72 h
[28] = system: normal primary NK cells, pool 3 (3 donors) (IL-2 2.5 ng/mL); assay: as above; settings: 72 h

CN(C)/N=N/c1[nH]cnc1C(N)=O [Dacarbazine] (max concentration tested 10000 nM)
percent inhibition of viability [%]
Settings | 1 nM | 10 nM | 100 nM | 1000 nM | 10000 nM
DERL-7 (IL-2 2.5 ng/mL) [2] | -2.46 | -7.71 | -9.81 | -6.85 | -5.73
IMC-1 (IL-2 20 ng/mL) [3] | -2.15 | -3.53 | 1.36 | 1.13 | 5.24
KAI3 (IL-2 2.5 ng/mL) [4] | -5.96 | -7.58 | -5.99 | -9.63 | 10.8
KHYG-1 (IL-2 2.5 ng/mL) [5] | -1.18 | -4.93 | -1.85 | 0.07 | 39.6
NK-92 (IL-2 2.5 ng/mL) [6] | -11.1 | -14.5 | -3.48 | -12.7 | -1.95
NK-YS (IL-2 2.5 ng/mL) [7] | -2.92 | -5.5 | 2.66 | 4.39 | 31.8
NKL (IL-2 2.5 ng/mL) [8] | -15.6 | -10.8 | -1.7 | 0.09 | -2.93
SNK-6 (IL-2 2.5 ng/mL) [9] | 16.4 | 16 | 31.9 | 30.4 | 22.6
YT (IL-2 2.5 ng/mL) [10] | -0.72 | -1.38 | 3.7 | 1.57 | 59.6
[1] | -6.74 | -2.31 | -4.77 | 1.92 | 10.3
[11] | 1.02 | -5.15 | 0.2 | -11.5 | -4.15
[12] | -7.07 | -16.7 | -8.98 | -35.2 | -22.9
[13] | -10.3 | -8.69 | -2.46 | -11.8 | -2.6
[14] | -14.1 | -10.7 | -2.39 | -8.2 | 3.49

Settings | drug sensitivity score
DERL-7 (IL-2 2.5 ng/mL) [16] | 0
IMC-1 (IL-2 20 ng/mL) [17] | 0
KAI3 (IL-2 2.5 ng/mL) [18] | 0
KHYG-1 (IL-2 2.5 ng/mL) [19] | 1.97
NK-92 (IL-2 2.5 ng/mL) [20] | 0
NK-YS (IL-2 2.5 ng/mL) [21] | 2.15
NKL (IL-2 2.5 ng/mL) [22] | 0
SNK-6 (IL-2 2.5 ng/mL) [23] | 10.7
YT (IL-2 2.5 ng/mL) [24] | 3.43
[15] | 0
[25] | 0
[26] | 0
[27] | 0
[28] | 0

CC(C)C[C@H](NC(=O)[C@H](CCc1ccccc1)NC(=O)CN1CCOCC1)C(=O)N[C@@H](Cc1ccccc1)C(=O)N[C@@H](CC(C)C)C(=O)[C@@]1(C)CO1 [Carfilzomib] (max concentration tested 1000 nM)
percent inhibition of viability [%]
Settings | 0.1 nM | 1 nM | 10 nM | 100 nM | 1000 nM
DERL-7 (IL-2 2.5 ng/mL) [2] | 0.47 | 55.2 | 101 | 101 | 101
IMC-1 (IL-2 20 ng/mL) [3] | -4.55 | -1.82 | 100 | 101 | 101
KAI3 (IL-2 2.5 ng/mL) [4] | -4.59 | 28.8 | 101 | 105 | 107
KHYG-1 (IL-2 2.5 ng/mL) [5] | -8.88 | 2.3 | 101 | 105 | 105
NK-92 (IL-2 2.5 ng/mL) [6] | 1.15 | 15.4 | 101 | 106 | 106
NK-YS (IL-2 2.5 ng/mL) [7] | -4.19 | 3.04 | 101 | 104 | 105
NKL (IL-2 2.5 ng/mL) [8] | -2.93 | -11 | 102 | 106 | 108
SNK-6 (IL-2 2.5 ng/mL) [9] | -4.32 | 5.11 | 99.5 | 101 | 101
YT (IL-2 2.5 ng/mL) [10] | -5.39 | 1.26 | 100 | 105 | 105
[1] | -5.98 | -4.15 | 96.8 | 101 | 101
[11] | -1.09 | 26.1 | 97.9 | 99.6 | 99.8
[12] | -8.37 | 33.8 | 94 | 98.4 | 98.3
[13] | -2.72 | 22.8 | 97.1 | 99.5 | 99.7
[14] | -8.33 | 11.5 | 94.8 | 100 | 101

Settings | drug sensitivity score
DERL-7 (IL-2 2.5 ng/mL) [16] | 37.2
IMC-1 (IL-2 20 ng/mL) [17] | 30.3
KAI3 (IL-2 2.5 ng/mL) [18] | 34.8
KHYG-1 (IL-2 2.5 ng/mL) [19] | 30.9
NK-92 (IL-2 2.5 ng/mL) [20] | 33.1
NK-YS (IL-2 2.5 ng/mL) [21] | 30.9
NKL (IL-2 2.5 ng/mL) [22] | 29.9
SNK-6 (IL-2 2.5 ng/mL) [23] | 31.1
YT (IL-2 2.5 ng/mL) [24] | 30.6
[15] | 29.7
[25] | 34
[26] | 34.1
[27] | 33.4
[28] | 31.4

— the supplement of paper PMC5908809
